Earlier results in publication PMC3736096 (Nature, 2013).

## COc1ccc(S(=O)(=O)Nc2nc(-c3cccc([N+](=O)[O-])c3)c(CN3CCCCC3)s2)cc1OC [JM6]
  blood-brain barrier penetration: do not appreciably penetrate the blood-brain barrier

## COc1ccc(S(=O)(=O)Nc2nc(-c3cccc([N+](=O)[O-])c3)cs2)cc1OC [Ro 61-8048, 3,4-dimethoxy-[-N-4-(nitrophenyl)thiazol-2yl]-benzenesulfonamide]
  blood-brain barrier penetration: do not appreciably penetrate the blood-brain barrier
